Reference: US10682371B2, “Small molecule conjugates specifically activated in tumor microenvironment for targeting and use thereof” (priority 2014, dated 2020)
Where two headings read alike, the source gives them in different places.

Tests used:
[1] = tested on: D121 lung tumor cells; type: in vivo, C57 mice; conditions: Day 18
Description: 1) D121 lung tumor cells were purchased from ATCC. Cells were cultivated in DMEM culture solution containing 10% fetal bovine serum at 37° C. and 5% CO2. The cells were passaged for every three days and cells within the 15th passage were used.
(§1) 2) Tumor immunization. 5×10^5 D121 lung cancer cells (purchased from ATCC) which were killed by irradiation were intraperitoneally injected to mice. The mice were injected for 3 times, once every two weeks. After immunization, mice were injected with tumor cells and the drugs were administered weekly for 4 weeks.
3) Production of tumor. At day 32, 10^6 live lung tumor cells were subcutaneously injected to the back of the C57 mice immunized by tumor. Treatment began when the tumor grew to 0.3-0.4 cm.
as §1, with “4 weeks. In table 16 below the immune group was immuned with D121 lung tumor cells and the group without dead D121 lung tumor cells was injected with physiological saline as controls.” for “4 weeks.”
3) Production of tumor. After immunization (4 weeks later), 10^6 live lung tumor cells were subcutaneously injected to the back of the C57 mice immunized by tumor. Treatment began when the tumor grew to 0.3-0.4 cm. Tumor size (mm^3) were noted and tumor inhibition rates were calculated.
as §1, with “4 weeks. In the table below the immune group was immuned with D121 lung tumor cells and the group without dead D121 lung tumor cells was injected with physiological saline as controls.” for “4 weeks.”
3) Production of tumor. At day 32, 10^6 live D121 lung tumor cells were subcutaneously injected to the back of the C57 mice immunized by tumor. Treatment began when the tumor grew to 0.3-0.4 cm.
1) D121 lung tumor cells were purposed from ATCC. Cells were cultivated in DMEM culture solution containing 10% fetal bovine serum at 37° C. and 5% CO2. The cells were passaged for every three days and cells within the 15th passage were used.

[2] = tested on: Human breast cancer MDA-MB231 cells; type: in vivo, nude mice; conditions: MDA-MB231, nude mice, IV 13.2 μmol/kg once weekly for four weeks
Description: (§2) 1) Human breast cancer MDA-MB231 cells were purchased from American type culture collection (ATCC) and identified according the specification provided by ATCC. Cells were cultivated in Dulbecco's minimum essential medium (DMEM culture medium) containing 10% fetal bovine serum at 37° C. and 5% CO2. The cells were passaged for every three days and cells within the 15th passage were used.
2) Production of tumor. 5×10^6 MDA-MB231 cells were subcutaneously injected to the back of the nude mice. Mice were randomly grouped after the tumor reached at least 100 mm^3. Then treatment began and the day on which the treatment began was day 1.
3) Course of treatment. […] The drugs were administered once weekly for four weeks.
When R1 is 2-(2-Methoxyethoxy)Acetyl, and R3 is Ala, activation study and efficacy study were carried out by using compounds having different cleavable linker. The study methods are identical to those in Examples 10, 11 and 12. The in vitro activation efficiency was tested by asparagine endopeptidase and the tumor inhibition rate was tested by using human breast cancer MDA-MB231 model. […]

[3] = tested on: tumor CD8+ T cells; type: in vivo, C57 mice
Description: (§3) 4) Analysis on tumor CD8+ T cells. The tumor tissue was homogenated and individual cells in the tumor were filtered, separated and washed by buffer twice, then cultivated with the leucocyte common antigen CD45-PE and CD8-FITC marked antibodies for 1 hour at ambient temperature. The cells were washed by phosphate buffer containing 1% fetal bovine serum twice and then analyzed for the ratio of the T lymphocyte antigen (CD8) positive cells in the leucocyte common antigen (CD45) positive cells by flow cytometry.
as §3, with “CD45-PE and T-lymphocyte antigen CD8-FITC marked” for “CD45-PE and CD8-FITC marked”, “flow cytometry. Increasement of the ratio indicates increased T lymphocyte cells and thus the animal immunity against the tumor was improved.” for “flow cytometry.”
as §3, with “cytometry. Increasement of the ratio indicates increased T lymphocyte cells and thus the animal immunity against the tumor was improved.” for “cytometry.”

[4] = tested on: 4T1 cells; experiment: BALB/C mice model for tumor metastasis (4T1, lung metastases); type: in vivo; conditions: BALB/C mice, 4T1, lung metastases day 27, IV every three days for 4 times
Description: as §2, with “4T1” for “Human breast cancer MDA-MB231”, “DMEM” for “Dulbecco's minimum essential medium (DMEM”, “solution” for “medium)”
2) Production of tumor metastasis. 10^6 […] were subcutaneously injected to the back of the BALB/C mice. Mice were randomly grouped after the tumor grew to about 1.5 cm. The subcutaneous tumor was removed by surgery and drug treatment began. Mice were killed after anesthesia on day 27. The whole lung was taken out and put into Bouin's solution for staining. The number of the tumor metastasized to lung was counted with anatomical microscope.
(§4) The control group was administered by physiological saline. Drugs were administered once for every three days for 4 times.
as §4
According to the clinical application of B1, B2, B3 and B4, drugs were intravenously injected (IV). […] The control group was administered by physiological saline. Drugs were administered once for every three days for 4 times.
According to the clinical application of D1, D2, D3 and D4, drugs were intravenously injected (IV). […] The control group was administered by physiological saline. Drugs were administered once for every three days for 4 times.

[5] = tested on: Human prostate cancer PC-3 cells; experiment: Tumor treatment in nude mice, PC-3 model (Example 51); type: in vivo; conditions: Table 48, nude mice, PC-3, IV once weekly for four weeks, D1-D4 25 mg/kg, Docetaxel […]
Description: as §2, with “prostate” for “breast”, “PC-3” for “MDA-MB231”, “DMEM” for “Dulbecco's minimum essential medium (DMEM”, “solution” for “medium)”
2) Production of tumor. 5×10^6PC-3 cells were subcutaneously injected to the back of the nude mice. Mice were randomly grouped after the tumor reached at least 100 mm^3. Then treatment began and the day on which the treatment began was day 1.
According to the clinical application of D1, D2, D3 and D4, drugs were intravenously injected (IV). […]. The control group was administered by physiological saline. Drugs were administered once weekly for four weeks.

[6] = tested on: Human prostate cancer PC-3 cells / Panc-1 cells; experiment: Tumor treatment in nude mice (PC-3 cells purchased, Panc-1 cells injected; Examples 22, 32, 42); type: in vivo; conditions: Table 38, nude mice, IV once weekly for four weeks, B1-B4 25 mg/kg, Docetaxel […]
Description: as §2, with “prostate” for “breast”, “PC-3” for “MDA-MB231”, “DMEM” for “Dulbecco's minimum essential medium (DMEM”, “solution” for “medium)”
2) Production of tumor. 5×10^6Panc-1 cells were subcutaneously injected to the back of the nude mice. Mice were randomly grouped after the tumor reached at least 100 mm^3. Then treatment began and the day on which the treatment began was day 1.
The control group was administered by physiological saline. Drugs were administered once weekly for four weeks.
According to the clinical application of B1, B2, B3 and B4, drugs were intravenously injected (IV). […] The control group was administered by physiological saline. Drugs were administered once weekly for four weeks.

[7] = D121 immunized C57 mice, 13.2 μmol/kg weekly, PDL1 antibody 5 μg/kg where combined
[8] = D121 immunized C57 mice, 13.2 μmol/kg, ratio of CD8 positive cells in CD45 positive cells of tumor
[9] = Table 39, immunized C57 mice, D121, drugs 13.2 μmol/kg, PDL1-antibody 5 μg/kg, weekly for 4 weeks
[10] = Table 49, immunized C57 mice, D121, drugs 13.2 μmol/kg, PDL1 antibody 5 μg/kg, weekly for 4 weeks
[11] = Table 40, B1-B4 17.6 μmol/kg, Docetaxel 3 μmol/kg
[12] = Table 50, D1-D4 25 mg/kg, Docetaxel 4.2 mg/kg

Compound	Inhibitory rate on tumor Day 18 [1, 7]	Size of tumor (mm^3) Day 18 [1, 7] [mm^3]	Inhibitory rate on tumor (%) Day 10 [2] [%]	Size of tumor (mm^3) Day 10 [2] [mm^3]	Inhibitory rate on tumor (%) Day 24 [2] [%]	Size of tumor (mm^3) Day 24 [2] [mm^3]	CD8: D45 (%) [3, 8] [%]	further results
COc1cccc2c1C(=O)c1c(O)c3c(c(O)c1C2=O)C[C@@](O)(C(C)=O)C[C@@H]3O[C@H]1C[C@H](N)[C@H](O)[C@H](C)O1 [daunorubicin]	21.63	1063.86 ± 317.56	43	174.78 ± 78.43	17	864.01 ± 67.45	13.2	
Docetaxel [reference compound]								Size of tumor (mm^3) Day 18 [1, 9]: 1242.30 ± 359.48 mm^3; inhibitory rate on tumor % Day 18 [1, 9]: 23.33%; Size of tumor (mm^3) Day 18 [1, 10]: 1268.64 mm^3; inhibitory rate on tumor % Day 18 [1, 10]: 11.0%; Inhibitory rate on metastasis [4, 11]: 32.5; Number of metastasized tumor [4, 11]: 85 ± 17; Inhibitory rate on metastasis [4, 12]: 89.7; Number of metastasized tumor [4, 12]: 156 ± 24; Size of tumor (mm^3) Day 10 ([5]; Day 10): 168.66 ± 79.43 mm^3; inhibitory rate on tumor Day 10 ([5]; Day 10): 51.3; Size of tumor (mm^3) Day 24 ([5]; Day 24): 313.75 ± 157.42 mm^3; inhibitory rate on tumor Day 24 ([5]; Day 24): 57.3; CD8: CD45 (%) ([3]; Table 39, CD8 positive cells in CD45 positive cells of tumor, flow cytometry, drugs 13.2 μmol/kg, PDL1-antibody 5 μg/kg): 5.4%; CD8: CD45 (%) ([3]; Table 49, CD8 positive cells in CD45 positive cells of tumor, flow cytometry, drugs 13.2 μmol/kg, PDL1 antibody 5 μg/kg): 6.9%; Size of tumor (mm^3) Day 10 ([6]; Day 10): 254.75 ± 146.55 mm^3; inhibitory rate on tumor Day 10 ([6]; Day 10): 11.1; Size of tumor (mm^3) Day 24 ([6]; Day 24): 263.65 ± 184.67 mm^3; inhibitory rate on tumor Day 24 ([6]; Day 24): 30.7
CC[C@@]1(O)C(=O)OCc2c1cc1n(c2=O)Cc2cc3ccccc3nc2-1 [camptothecin]	34.47	889.56 ± 148.56	15	258.45 ± 57.43	19	847.46 ± 157.56		CD8: CD45 (%) [3, 8]: 13.2%
CCCCCOC(=O)Nc1nc(=O)n([C@@H]2O[C@H](C)[C@@H](O)[C@H]2O)cc1F [capecitabine]	29.75	953.65 ± 245.43	26	225.53 ± 74.45	9	946.43 ± 275.86	13.6	
